Literature values in patent US8927021B2, “Granulating process and thus prepared granulate” (Egis Gyogyszergyar Nyilvanosan Muekoedoe Reszventarsasag, priority 2009, dated 2015).

Structure (SMILES): O=C1[C@H](CC[C@H](O)c2ccc(F)cc2)[C@@H](c2ccc(O)cc2)N1c1ccc(F)cc1 [Ezetimibe, (3R,4S)-1-(4-Fluorophenyl)-3-[(3S)-3-(4-fluorophenyl)-3-hydroxypropyl]-4-(4-hydroxyphenyl)-2-azetidinone]
- solubility in digestive juice (digestive juice): insoluble
- solubility in organic solvents (organic solvents): soluble
- solubility in water (water): insoluble
